# Patent publication US9663478B2, “Benzotriazine oxides as drugs targeting Mycobacterium tuberculosis” (priority 2011, dated 2017)
# How the values were obtained:
# H37Rv = experiment: MIC H37Rv (Table E1, Additional BTO Activity Data); type: cell-based; details: Mycobacterium tuberculosis
# INH-r = experiment: MIC INH-r (Table E1); type: cell-based
# RMP-R = experiment: MIC RMP-R (Table E1); type: cell-based
# OFX-R = experiment: MIC OFX-R (Table E1); type: cell-based
# [1] = MP MTT % viable (Table E1); details: MP (so in the source)
# Mtb H37Rv [2] = experiment: TB MIC - SRI, resazurin-based microplate assay; type: cell-based, Mycobacterium tuberculosis; details: Mycobacterium tuberculosis, H37RV, read-out: TB MIC - SRI
# Mtb H37Rv [3] = experiment: TB MIC - ITR (UIC), Institute for Tuberculosis Research; type: cell-based, Mycobacterium tuberculosis; details: for MIC: Mycobacterium tuberculosis, H37RV, Tables 1-4, read-out: TB MIC - ITR; for TB MIC - UIC: Tables P1, P2
# NRP Mtb H37Rv cells = experiment: Low-oxygen recovery assay (LORA) MIC; type: cell-based, Mycobacterium tuberculosis; details: for MIC: Mycobacterium tuberculosis, H37RV, NRP Mtb, Tables 1-4 and text, read-out: LORA MIC - ITR; for LORA MIC: Tables P1, P2, non-replicating M. tuberculosis
# in vitro = details: African green monkey, VERO Tox (CC50)
# Vero cells = experiment: Cytotoxicity against Vero cells (Cell Titer-Glo); details: 72 h; Tables 1-4 and text
structure (smiles),measurement,setting,value
CN(Cc1ccccn1)c1n[n+]([O-])c2cc3c(cc2[n+]1[O-])CCC3 [Cmpd 2],MIC,H37Rv,1 µg/mL
CN(c1n[n+]([O-])c2cc3c(cc2[n+]1[O-])CCC3)C1(c2ccc(F)cc2)CC1 [Cmpd 4],MIC,H37Rv,4.6 µg/mL
CC(C)(Nc1n[n+]([O-])c2cc3c(cc2[n+]1[O-])CCC3)c1ccc(F)cc1 [Cmpd 5],MIC,H37Rv,4.4 µg/mL
CCNc1n[n+]([O-])c2c(Cl)c(OC)ccc2[n+]1[O-] [Cmpd 6],MIC,H37Rv,0.4 µg/mL
[O-][n+]1nc(NC2(c3ccc(F)cc3)CC2)[n+]([O-])c2cc3c(cc21)CCC3 [Cmpd 7],MIC,H37Rv,17.6 µg/mL
COc1cccc(C2CCN(c3n[n+]([O-])c4cc5c(cc4[n+]3[O-])CCC5(C)C)C2)c1OC (stereo not drawn) [Cmpd 8],MIC,H37Rv,0.7 µg/mL
CC1(C)CCc2cc3c(cc21)[n+]([O-])nc(N1CCCC1)[n+]3[O-] [Cmpd 9],MIC,H37Rv,0.5 µg/mL
[O-][n+]1nc(N2CC3CCCC3C2)[n+]([O-])c2cc3c(cc21)CCC3 (stereo not drawn) [Cmpd 10],MIC,H37Rv,0.391 µg/mL
same,MIC,INH-r,0.391 µg/mL
same,MIC,RMP-R,0.098 µg/mL
same,MIC,OFX-R,0.195 µg/mL
same,viability at 0.01 ug/ml,[1],103%
same,viability at 0.1 ug/ml,[1],94%
same,viability at 1 ug/ml,[1],107%
CN(Cc1ccc(C(F)(F)F)cc1)c1n[n+]([O-])c2cc3c(cc2[n+]1[O-])CCC3 [Cmpd 11],MIC,H37Rv,0.098 µg/mL
same,MIC,INH-r,0.195 µg/mL
same,MIC,RMP-R,0.024 µg/mL
same,MIC,OFX-R,0.024 µg/mL
same,viability at 0.01 ug/ml,[1],113%
same,viability at 0.1 ug/ml,[1],108%
same,viability at 1 ug/ml,[1],104%
COc1ccc(CN(C)c2n[n+]([O-])c3cc4c(cc3[n+]2[O-])CCC4)cc1 [Cmpd 12],MIC,H37Rv,0.391 µg/mL
same,MIC,INH-r,0.098 µg/mL
same,MIC,RMP-R,0.098 µg/mL
same,MIC,OFX-R,0.195 µg/mL
same,viability at 0.01 ug/ml,[1],121%
same,viability at 0.1 ug/ml,[1],94%
same,viability at 1 ug/ml,[1],88%
[O-][n+]1nc(N2CCC(c3ccccc3F)C2)[n+]([O-])c2cc3c(cc21)CCC3 (stereo not drawn) [Cmpd 13],MIC,H37Rv,0.098 µg/mL
same,MIC,INH-r,0.098 µg/mL
same,MIC,RMP-R,0.049 µg/mL
same,MIC,OFX-R,0.024 µg/mL
same,viability at 0.01 ug/ml,[1],161%
same,viability at 0.1 ug/ml,[1],123%
same,viability at 1 ug/ml,[1],102%
CN(Cc1ccc(F)cc1)c1n[n+]([O-])c2cc3c(cc2[n+]1[O-])CCC3 [Cmpd 14],MIC,H37Rv,0.195 µg/mL
same,MIC,INH-r,0.098 µg/mL
same,MIC,RMP-R,0.049 µg/mL
same,MIC,OFX-R,0.098 µg/mL
same,viability at 0.01 ug/ml,[1],112%
same,viability at 0.1 ug/ml,[1],82%
same,viability at 1 ug/ml,[1],1%
[O-][n+]1nc(N2CCC(c3ccccc3Cl)C2)[n+]([O-])c2cc3c(cc21)CCC3 (stereo not drawn) [Cmpd 15],MIC,H37Rv,0.098 µg/mL
same,MIC,INH-r,0.098 µg/mL
same,MIC,RMP-R,0.098 µg/mL
same,MIC,OFX-R,0.024 µg/mL
same,viability at 0.01 ug/ml,[1],102%
same,viability at 0.1 ug/ml,[1],75%
same,viability at 1 ug/ml,[1],58%
COc1ccc(OC)c(C2CCN(c3n[n+]([O-])c4cc5c(cc4[n+]3[O-])CCC5)C2)c1 (stereo not drawn) [Cmpd 16],MIC,H37Rv,0.195 µg/mL
same,MIC,INH-r,0.098 µg/mL
same,MIC,RMP-R,0.195 µg/mL
same,MIC,OFX-R,0.098 µg/mL
same,viability at 0.01 ug/ml,[1],122%
same,viability at 0.1 ug/ml,[1],97%
same,viability at 1 ug/ml,[1],108%
[O-][n+]1nc(N2CCC(c3ccc(F)cc3)C2)[n+]([O-])c2cc3c(cc21)CCC3 (stereo not drawn) [Cmpd 17],MIC,H37Rv,0.098 µg/mL
same,MIC,INH-r,0.049 µg/mL
same,MIC,RMP-R,0.027 µg/mL
same,MIC,OFX-R,0.049 µg/mL
same,viability at 0.01 ug/ml,[1],104%
same,viability at 0.1 ug/ml,[1],82%
same,viability at 1 ug/ml,[1],69%
COc1cccc(C2CCN(c3n[n+]([O-])c4cc5c(cc4[n+]3[O-])CCC5)C2)c1OC (stereo not drawn) [Cmpd 18],MIC,H37Rv,0.391 µg/mL
same,MIC,INH-r,0.195 µg/mL
same,MIC,RMP-R,0.391 µg/mL
same,MIC,OFX-R,0.049 µg/mL
same,viability at 0.01 ug/ml,[1],85%
same,viability at 0.1 ug/ml,[1],55%
same,viability at 1 ug/ml,[1],33%
"CCC(COC)Nc1n[n+]([O-])c2cc(Cl)ccc2[n+]1[O-] (stereo not drawn) [Compound 15bi, 7-chloro-3-((1-methoxybutan-2-yl)amino)benzo[e][1,2,4]triazine 1,4-dioxide]",MIC,Mtb H37Rv [2]; Tables 1-4 and text,1.2 µg/mL
same,MIC,Mtb H37Rv [3],1.4 µg/mL
same,MIC,NRP Mtb H37Rv cells,0.78 µg/mL
same,CC50 at 72 h,in vitro,2.6 µg/mL
"O=C(Cn1ccnc1[N+](=O)[O-])NCCO [Etanidazole, reference compound]",MIC,Mtb H37Rv [2]; Tables 1-4 and text,> 10 µg/mL
same,MIC,Mtb H37Rv [3],> 32 µg/mL
same,MIC,NRP Mtb H37Rv cells,26 µg/mL
same,Vero Tox CC50,Vero cells,>16 µg/mL
"NNC(=O)c1ccncc1 [INH, Isoniazid, reference compound]",MIC,Mtb H37Rv [2]; Tables 1-4 and text,0.06 µg/mL
same,MIC,Mtb H37Rv [3],0.091 µg/mL
same,MIC,NRP Mtb H37Rv cells,> 20 µg/mL
same,Vero Tox CC50,Vero cells,>50 µg/mL
"Cc1ncc([N+](=O)[O-])n1CCO [Metronidazole, reference compound]",MIC,Mtb H37Rv [2]; Tables 1-4 and text,> 10 µg/mL
same,MIC,Mtb H37Rv [3],> 32 µg/mL
same,MIC,NRP Mtb H37Rv cells,11 µg/mL
same,Vero Tox CC50,Vero cells,>16 µg/mL
"O=C1CN(/N=C/c2ccc([N+](=O)[O-])o2)C(=O)N1 [Nitrofurantoin, reference compound]",MIC,Mtb H37Rv [2]; Tables 1-4 and text,16 µg/mL
same,MIC,Mtb H37Rv [3],28 µg/mL
same,MIC,NRP Mtb H37Rv cells,32 µg/mL
same,Vero Tox CC50,Vero cells,23 µg/mL
CC(C)(C)C1CCC(Nc2n[n+]([O-])c3ccccc3[n+]2[O-])CC1 (stereo not drawn) [SRI-012257],MIC,Mtb H37Rv [2]; Tables P1-P3,0.625 µg/mL
same,TB MIC - UIC,Mtb H37Rv [3],0.22 µg/mL
same,LORA MIC,NRP Mtb H37Rv cells,< 0.125 µg/mL
same,CC50 at 72 h,in vitro,2.3 µg/mL
CC(C)CCC(C)Nc1n[n+]([O-])c2ccccc2[n+]1[O-] (stereo not drawn) [SRI-012259],MIC,Mtb H37Rv [2]; Tables P1-P3,1.25 µg/mL
same,TB MIC - UIC,Mtb H37Rv [3],0.52 µg/mL
same,LORA MIC,NRP Mtb H37Rv cells,0.38 µg/mL
same,CC50 at 72 h,in vitro,4.1 µg/mL
[O-][n+]1nc(NC2CCC2)[n+]([O-])c2ccccc21 [SRI-012260],MIC,Mtb H37Rv [2]; Tables P1-P3,1.25 µg/mL
same,TB MIC - UIC,Mtb H37Rv [3],0.94 µg/mL
same,LORA MIC,NRP Mtb H37Rv cells,0.84 µg/mL
same,CC50 at 72 h,in vitro,8.9 µg/mL
CCC(C)Nc1n[n+]([O-])c2ccccc2[n+]1[O-] (stereo not drawn) [SRI-012262],MIC,Mtb H37Rv [2]; Tables P1-P3,2.5 µg/mL
same,TB MIC - UIC,Mtb H37Rv [3],2 µg/mL
same,LORA MIC,NRP Mtb H37Rv cells,1.28 µg/mL
same,CC50 at 72 h,in vitro,21.6 µg/mL
CC(C)CC(C)Nc1n[n+]([O-])c2ccccc2[n+]1[O-] (stereo not drawn) [SRI-012263],MIC,Mtb H37Rv [2]; Tables P1-P3,2.5 µg/mL
same,TB MIC - UIC,Mtb H37Rv [3],1.98 µg/mL
same,LORA MIC,NRP Mtb H37Rv cells,0.83 µg/mL
same,CC50 at 72 h,in vitro,11.7 µg/mL
CC(C)C(C)Nc1n[n+]([O-])c2ccccc2[n+]1[O-] (stereo not drawn) [SRI-012267],MIC,Mtb H37Rv [2]; Tables P1-P3,5 µg/mL
same,TB MIC - UIC,Mtb H37Rv [3],1.93 µg/mL
same,LORA MIC,NRP Mtb H37Rv cells,0.98 µg/mL
same,CC50 at 72 h,in vitro,21 µg/mL
CC(Nc1n[n+]([O-])c2ccccc2[n+]1[O-])C(C)(C)C (stereo not drawn) [SRI-012268],MIC,Mtb H37Rv [2]; Tables P1-P3,5 µg/mL
same,TB MIC - UIC,Mtb H37Rv [3],2.43 µg/mL
same,LORA MIC,NRP Mtb H37Rv cells,1 µg/mL
same,CC50 at 72 h,in vitro,20.2 µg/mL
[O-][n+]1nc(NC2[C@H]3C[C@@H]4C[C@@H](C[C@H]2C4)C3)[n+]([O-])c2ccccc21 (stereo partly drawn) [SRI-012269],MIC,Mtb H37Rv [2]; Tables P1-P3,2.5 µg/mL
same,TB MIC - UIC,Mtb H37Rv [3],1.91 µg/mL
same,LORA MIC,NRP Mtb H37Rv cells,2.33 µg/mL
same,CC50 at 72 h,in vitro,7.3 µg/mL
CC1CC(Nc2n[n+]([O-])c3ccccc3[n+]2[O-])CC(C)(C)C1 (stereo not drawn) [SRI-012270],MIC,Mtb H37Rv [2]; Tables P1-P3,1.25 µg/mL
same,TB MIC - UIC,Mtb H37Rv [3],0.57 µg/mL
same,LORA MIC,NRP Mtb H37Rv cells,0.39 µg/mL
same,CC50 at 72 h,in vitro,5.2 µg/mL
CCC(CC)Nc1n[n+]([O-])c2ccccc2[n+]1[O-] [SRI-012271],MIC,Mtb H37Rv [2]; Tables P1-P3,5 µg/mL
same,TB MIC - UIC,Mtb H37Rv [3],3.63 µg/mL
same,LORA MIC,NRP Mtb H37Rv cells,1.94 µg/mL
same,CC50 at 72 h,in vitro,36.5 µg/mL
CCC(COC)Nc1n[n+]([O-])c2ccccc2[n+]1[O-] (stereo not drawn) [SRI-012272],MIC,Mtb H37Rv [2]; Tables P1-P3,10 µg/mL
same,TB MIC - UIC,Mtb H37Rv [3],6.57 µg/mL
same,LORA MIC,NRP Mtb H37Rv cells,4.87 µg/mL
same,CC50 at 72 h,in vitro,50 µg/mL
"Nc1n[n+]([O-])c2ccccc2[n+]1[O-] [TPZ, tirapazamine, reference compound]",MIC,Mtb H37Rv [2]; Tables 1-4 and text,5 µg/mL
same,MIC,Mtb H37Rv [3],3.7 µg/mL
same,MIC,NRP Mtb H37Rv cells,7.3 µg/mL
same,Vero Tox CC50,Vero cells,8.0 µg/mL
